Assay results published in patent US5300672A (priority 1992, dated 1994).
In brackets after ≈: the same amount, converted by molar mass. Read-outs that look alike come from different tables or passages of the source.

Key:
[1] = tested on: Erysiphe graminis (f. sp. tritici); assay: whole plant or invertebrate; format: in vivo
[2] = tested on: Pseudomonas fluorescens; assay: Alternate Minimum Inhibitory Concentrations Test (Table 4), Ps.fl; format: cell-based; conditions: Table 4 alternate test, 250 ppm to 0.8 ppm in TSB, 72 hours, 30° C.; for MIC: Pseudomonas fluorescens, read-out: MIC Ps.fl
Procedure, shortened: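 MIC taken as lowest concentration showing no growth after 72 h incubation at 30 °C in TSB. Twofold dilution series spanned 250 down to 0.8 ppm, wells inoculated with phosphate-buffer-diluted 24 h culture.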

[3] = tested on: Puccinia recondita (f. sp. tritici Races PKB and PLD); assay: whole plant or invertebrate; format: in vivo; conditions: for pest or weed control at 100 ppm / pest or weed control at 200 ppm / pest or weed control at 50 ppm: Puccinia recondita, 240 h, read-out: % Control WLR; for % Control WLR: in vivo
[4] = tested on: Phytophthora infestans; assay: whole plant or invertebrate; format: in vivo; conditions: for pest or weed control at 100 ppm / pest or weed control at 200 ppm: Phytophthora infestans, in Solanum lycopersicum, 96 h; for pest or weed control at 100 ppm: read-out: % Control TLB, application rate 100 ppm
[5] = tested on: Pythium ultimum; assay: Pythium ultimum in vitro Fungitoxicity Assay in liquid culture; format: cell-based, Pythium ultimum (ATCC 26083); conditions: Globisporangium ultimum; mycelial dry weight, 48 h at 25° C., shaking at 60 rpm; read-out: EC 50
Method: Selected compounds of Examples 1-120 were subjected also to the following in vitro fungitoxicity assay against Pythium ultimum in a liquid culture, with the results as indicated in Table 6.
Pythium ultimum Fungitoxicity Assay
A dilution series of the test compound was prepared in dimethylsulfoxide, and 0.1 ml of each dilution was added to 19.9 ml of a liquid asparagine-sucrose medium (D. C. Erwin and K. Katznelson (1971), Can. J. Microbiol. 7, 15) in 9 cm diameter petri dishes to give the desired final concentrations of test compound. Plates were inoculated with mycelial plugs, 7 mm diameter, taken from the growing edge of 48 h old cultures of Pythium ultimum, (ATCC 26083), grown on potato dextrose agar. Two replicate plates were used for each treatment. The increase in mycelial dry weight was determined after growth for 48 h at 25° C. with shaking at 60 rpm. EC50 values were calculated from dose response curves.

[6] = tested on: Pellicularia filamentosa (f. sp. sasiki); assay: whole plant or invertebrate; format: in vivo
[7] = tested on: Piricularia oryzae; assay: whole plant or invertebrate; format: in vivo; conditions: for pest or weed control at 200 ppm / pest or weed control at 50 ppm: Pyricularia oryzae; for pest or weed control at 50 ppm: read-out: % Control RB, application rate 50 ppm
[8] = tested on: Puccinia graminis (f. sp. tritici Race 15B-2); assay: whole plant or invertebrate; format: in vivo
[9] = tested on: Pseudoperonospora cubensis; assay: whole plant or invertebrate; format: in vivo
[10] = Blumeria graminis, read-out: % Control WPM
[11] = read-out: % Control TLB, application rate 200 ppm
[12] = read-out: % Control RB, application rate 200 ppm
[13] = Puccinia graminis, 336 h, read-out: % Control WSR
[14] = Pseudoperonospora cubensis, in Cucumis sativus, 168 h, read-out: % Control CDM

Row | Compound | MIC [2] [µg/mL] | EC50 [5] [µg/mL] | pest or weed control at 200 ppm [1, 10] [%] | pest or weed control at 200 ppm [3] [%] | pest or weed control at 200 ppm [4, 11] [%] | pest or weed control at 200 ppm [7, 12] [%] | pest or weed control at 200 ppm ([6]; 120 h, read-out: % Control RSB) [%] | pest or weed control at 200 ppm ([4]; read-out: % Control TLB) [%] | pest or weed control at 100 ppm [8, 13] [%] | pest or weed control at 200 ppm [9, 14] [%] | other results
1 | CCCCCCCCNC(=O)/C=C\SCn1cncn1 [Compound 7, N-octyl-cis-3-[1-(1,2,4-triazoyl)methylthio]acrylamide] | > 250 | 50 (≈ 169 µM) | – | – | – | – | – | – | – | – | pest or weed control at 100 ppm [1, 10]: 0%; pest or weed control at 100 ppm [3]: 0%; pest or weed control at 100 ppm [4]: 0%; pest or weed control at 6 ppm ([6]; 120 h, read-out: % Control RSB): 50%
2 | CCCCCCCCNC(=O)/C=C\SC(=O)c1ccc(N=C=S)cc1 [Compound 48, N-octyl-cis-3-[(4-isothiocyanobenzoyl)thio]acrylamide] | > 250 | 8.2 (≈ 21.8 µM) | – | – | – | – | – | – | – | – | pest or weed control at 100 ppm [4]: 0%
3 | CCCCCCCCNC(=O)/C=C\SC(=O)c1ccc(Br)cn1 [Compound 53, N-octyl-cis-3-[(5-bromo-2-pyridine)carbonylthio]acrylamide] | > 250 | 10.2 (≈ 25.5 µM) | – | – | – | – | – | – | – | – | pest or weed control at 100 ppm [1, 10]: 0%; pest or weed control at 100 ppm [3]: 0%; pest or weed control at 100 ppm [4]: 0%; pest or weed control at 100 ppm ([6]; 120 h, read-out: % Control RSB): 0%
4 | CCCCCCCCNC(=O)/C=C\SC(=O)c1cccn1C [Compound 61, N-octyl-cis-3-[(1-methyl-2-pyrrole)carbonylthio]acrylamide] | > 250 | 59.5 (≈ 185 µM) | 0 | 0 | 0 | 0 | 0 | – | – | – | –
5 | CCCCCCCCNC(=O)/C=C\SC(=O)/C=C/c1ccco1 [Compound 68, N-octyl-cis-3-[(trans-3-(2-furan)propenoyl)thio]acrylamide] | > 250 | – | 0 | 0 | – | – | 0 | 90 | – | – | pest or weed control at 200 ppm [8, 13]: 90%; pest or weed control at 12 ppm [9, 14]: 70%; pest or weed control at 50 ppm [7]: 80%
6 | CCCCCCCCNC(=O)/C=C\SC(=O)CCc1ccccc1 [Compound 69, N-octyl-cis-3-[(3-phenylpropanoyl)thio]acrylamide] | > 250 | – | 0 | – | 100 | 80 | 0 | – | – | – | pest or weed control at 200 ppm [8, 13]: 75%; pest or weed control at 50 ppm [9, 14]: 85%; % Control WLR [3]: 0 % Control
7 | CCCCCCCCNC(=O)/C=C\SC(=O)/C=C/c1ccc(C(F)(F)F)cc1 [Compound 70, N-octyl-cis-3-[(trans-3-(4-(trifluoromethyl)phenyl)propenoyl)thio]acrylamide] | > 250 | 5 (≈ 12.1 µM) | 0 | 0 | 0 | 50 | 0 | – | – | – | –
8 | CCCCCCCCNC(=O)/C=C\SC(=O)c1nccc2ccccc12 [Compound 73, N-octyl-cis-3-[(1-isoquinoline)carbonylthio]acrylamide] | > 250 | 8.4 (≈ 22.7 µM) | 0 | 25 | 0 | 0 | 0 | – | – | – | –
9 | CCCCCCCCNC(=O)/C=C\SC(=O)C1CCc2ccccc2C1 (stereo not drawn) [Compound 74, N-octyl-cis-3-[(1,2,3,4-tetrahydronaphth-2-oyl)thio]acrylamide] | > 250 | 5 (≈ 13.4 µM) | 0 | 0 | 0 | 0 | 0 | – | – | – | –
10 | CCCCCCCCNC(=O)/C=C\SC(=O)c1ccc2ccccc2n1 [Compound 76, N-octyl-cis-3-[(2-quinoline)carbonylthio]acrylamide] | > 250 | 13.2 (≈ 35.6 µM) | 0 | 0 | 0 | 0 | 0 | – | – | – | –
11 | CCCCCCCCNC(=O)/C=C\SC(=O)CC(C)c1ccccc1 (stereo not drawn) [Compound 78, N-octyl-cis-3-[(3-phenylbutanoyl)thio]acrylamide] | > 250 | 23.9 (≈ 66.1 µM) | 0 | 0 | 0 | 0 | 0 | – | – | – | –
12 | CCCCCCCCNC(=O)/C=C\SC(=O)CCCc1ccccc1 [Compound 80, N-octyl-cis-3-[(4-phenylbutanoyl)thio]acrylamide] | > 250 | – | 0 | 0 | 100 | 50 | 50 | – | – | – | pest or weed control at 200 ppm [8, 13]: 75%; pest or weed control at 50 ppm [9, 14]: 85%
13 | CCCCCCCCNC(=O)/C=C\SC(=O)/C(=C/c1ccccc1)c1ccccc1 [Compound 82, N-octyl-cis-3-[(cis-2,3-diphenylpropenoyl)thio]acrylamide] | > 250 | – | 0 | – | 0 | 90 | 0 | – | 50 | 0 | pest or weed control at 50 ppm [3]: 50%
14 | CCCCCC#CC(=O)S/C=C\C(=O)NCCCCCCCC [Compound 86, N-octyl-cis-3-[(2-octynoyl)thio]acrylamide] | > 250 | – | 0 | 50 | – | 0 | 0 | 90 | 0 | 85 | –
15 | CCCCCCCCNC(=O)/C=C\SC(=O)COC [Compound 87, N-octyl-cis-3-(methoxyacetylthio)acrylamide] | > 250 | – | – | 80 | – | – | 0 | 90 | – | 100 | pest or weed control at 12 ppm [1, 10]: 50%; pest or weed control at 10 ppm [8, 13]: 50%; pest or weed control at 200 ppm ([7]; read-out: % Control RB): 95%
16 | CCCCCCCCNC(=O)/C=C\SC(=O)C1=CC(=O)CC(C)(C)O1 [Compound 89, N-octyl-cis-3-[(3,4-dihydro-2,2-dimethyl-4-oxo-2H-pyran-6-carbonyl)thio]acrylamide] | > 250 | – | 0 | 90 | – | – | 0 | 90 | 80 | 70 | pest or weed control at 200 ppm ([7]; read-out: % Control RB): 95%
17 | CCCCCCCCNC(=O)/C=C\SC(=O)CC1C=CCC1 (stereo not shown) [Compound 93] | > 250 | – | 75 | 50 | – | – | 0 | 90 | 50 | 99 | pest or weed control at 50 ppm [7]: 90%
18 | CCCCCCCCNC(=O)/C=C\SC(=O)/C=C/c1ccc([N+](=O)[O-])cc1 [Compound 96, N-octyl-cis-3-[(trans-3-(4-nitrophenyl)propenoyl)thio]acrylamide] | > 250 | – | 75 | – | 0 | – | 50 | – | 0 | 95 | pest or weed control at 50 ppm [3]: 0%; pest or weed control at 200 ppm ([7]; read-out: % Control RB): 95%
19 | CCCCCCCCNC(=O)/C=C\SC(=O)c1cccc(OC)c1[N+](=O)[O-] [Compound 98, N-octyl-cis-3-[(2-nitro-3-methoxybenzoyl)thio]acrylamide] | > 250 | – | – | 50 | – | – | 0 | 90 | 0 | 50 | pest or weed control at 50 ppm [1, 10]: 0%; pest or weed control at 200 ppm ([7]; read-out: % Control RB): 99%
20 | N-octyl-cis-3-[(2-butenoyl)thio]acrylamide [Compound 20] | – | – | – | – | – | – | – | – | – | – | % Control WPM ([1]; in vivo): 0 % Control; % Control WSR ([8]; application rate 200 ppm): 75 % Control; % Control CDM ([9]; in vivo): 85 % Control; MIC Ps.fl [2]: > 250 Ppm; % Control WLR [3]: 0 % Control; % Control TLB ([4]; application rate 6 ppm): 95 % Control; % Control RB ([7]; in vivo): 50 % Control; % Control RSB ([6]; in vivo): 0 % Control
